# Reference: patent US20240165129A1, “METHODS OF TREATING PAIN AND DEPRESSION” (priority 2022, published 2024)
# Read-outs that look alike come from different tables or passages of the source.
# Assays:
# [1] = biological target: T1, homomeric ASIC1a channels (Homo sapiens, UniProt P78348); type: cell-based
# T1 construct: expressed in transfected cells
# T1 sequence (P78348 1-528): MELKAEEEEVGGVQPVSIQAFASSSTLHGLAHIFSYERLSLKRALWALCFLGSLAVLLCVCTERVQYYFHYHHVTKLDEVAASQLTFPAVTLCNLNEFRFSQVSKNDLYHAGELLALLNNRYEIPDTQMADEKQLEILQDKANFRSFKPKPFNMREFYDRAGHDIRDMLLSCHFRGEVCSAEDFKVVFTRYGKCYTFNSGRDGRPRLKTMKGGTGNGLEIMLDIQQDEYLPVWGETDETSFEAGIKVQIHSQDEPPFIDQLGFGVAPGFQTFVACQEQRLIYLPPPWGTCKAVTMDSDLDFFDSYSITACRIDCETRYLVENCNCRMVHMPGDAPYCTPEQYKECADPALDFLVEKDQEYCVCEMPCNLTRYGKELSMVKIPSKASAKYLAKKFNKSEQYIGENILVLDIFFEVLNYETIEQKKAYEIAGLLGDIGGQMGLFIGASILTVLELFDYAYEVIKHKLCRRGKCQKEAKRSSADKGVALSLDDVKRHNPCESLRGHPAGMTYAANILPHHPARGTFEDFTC
# homomeric ASIC2a = biological target: T2, homomeric ASIC2a (Rattus norvegicus, UniProt Q62962); assay: Patch-clamp recording of ASIC2a currents in CHO cells with transient expression; details: 10 μM, pH drop 7.4 to 4.5, n=4-5
# T2 sequence (Q62962 1-512): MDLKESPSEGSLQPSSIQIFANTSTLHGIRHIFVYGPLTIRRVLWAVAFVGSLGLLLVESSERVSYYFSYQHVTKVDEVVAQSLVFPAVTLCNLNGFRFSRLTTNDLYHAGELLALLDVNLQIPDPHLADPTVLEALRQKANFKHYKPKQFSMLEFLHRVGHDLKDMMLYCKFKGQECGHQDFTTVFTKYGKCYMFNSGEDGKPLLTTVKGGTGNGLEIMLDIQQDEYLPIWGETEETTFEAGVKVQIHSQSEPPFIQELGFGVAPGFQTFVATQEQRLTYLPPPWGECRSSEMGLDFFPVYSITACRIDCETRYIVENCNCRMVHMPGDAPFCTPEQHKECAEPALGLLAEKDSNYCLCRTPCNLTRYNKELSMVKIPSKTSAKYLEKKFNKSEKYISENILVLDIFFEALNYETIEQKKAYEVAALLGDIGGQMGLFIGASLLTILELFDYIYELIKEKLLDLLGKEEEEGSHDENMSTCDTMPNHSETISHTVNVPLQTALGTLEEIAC
# Protocol: (§1) Chinese hamster ovary (CHO) cells were cultured in F12-K medium (Invitrogen) plus 10% fetal bovine serum, 50 units/nal penicillin, and 50 μg/m1 streptomycin. At ˜50% confluence, CHO cells were co-transfected with cDNAs for rat ASIC1β, ASIC2a, or ASIC3, and that for GFP. GFP-positive cells were used for electrophysiological recordings 24-72 h after transient transfection.
# (§2) ASIC currents were recorded using patch-clamp techniques. Pipette solution contained (mM): 140 CsF, 1 CaCl2, 2 MgCl2, 11 EGTA, 2 tetraethylammonium chloride, 10 HEPES and 4 MgATP, pH 7.3 adjusted with CsOH, 290-300 mOsm. Extracellular Fluid (ECF) contained (mM): 140 NaCl, 5.4 KCl, 2 CaCl2, 1 MgCl2, 10 glucose, and 10 HEPES (320-330 mOsm). A multi-barrel perfusion system (SF-77 Warner Instruments, Hamden, CT) was used to obtain a rapid exchange of ECFs. Currents were recorded with Axopatch 200B amplifier, filtered at 2 kHz, and digitized at 5 kHz using Digidata 1332A. ASIC currents were induced by rapid perfusion of the cells with acidic ECF for 4 seconds. Unless otherwise stated, cells were clamped at a holding potential of −60 mV. […] Data were excluded for statistical analysis when access resistance was >10 MΩ or leak current was >100 pA.
# (§3) Therefore, the study used pH 6.0 and 4.5 to activate ASIC1β and ASIC2a currents, respectively. […]
# [2] = test system: Sprague-Dawley rats (CFA-induced pain); assay: CFA rat pain model, paw pressure (vocalization) and mechanical hypersensitivity tests
# Protocol: Male Sprague-Dawley rats (150-175 g) are acclimatized for a week before testing. Rats are housed in a controlled room with a 12-hour light/dark cycle, with free access to food and water. Rats are housed 4 per cage except after the bilateral implantation experiment (2 per cage and individually following surgery). Pain is induced by a single unilateral intra-articular injection of 50 μl complete Freund's adjuvant (CFA, heat-killed Mycobacterium 2 mg/ml) in the right hindpaw under isoflurane (4%) anaesthesia. Sham rats are injected with 50 μl of vehicle in the same conditions. Behavioral experiments are performed 14-16 days after pain induction, when rats weighed between 260 to 320 g. […]
# The effect of Triol (0.05 μg/0.5 μl/side) 15 min before the behavioral tests is evaluated in sham and Pain rats, 14 to 16 days following pain induction. The behavior of each rat is then assessed in the different tests (i.e., social interaction or elevated plus maze for anxiety, and paw pressure or paw immersion for pain, see below).
# Mechanical hypersensitivity in sham and Pain animals is assessed with an analgesiometer (paw pressure test). Nociceptive thresholds are measured by applying increased pressure to the ipsilateral ankle of unrestrained rats until a vocalisation is obtained. […] Vocalization threshold is assessed at baseline and 15, 25 and 45 min following Triol, mambalgin-1 or saline administration.
# [3] = biological target: T3, heteromeric ASIC1a/2a channels (UniProt P78348+Q62962); details: Triol 10 μM, PcTx-1 insensitive cells, pH 6.0, n=4
# T3 sequence (P78348 1-528): T1 sequence (P78348 1-528)
# T3 sequence (Q62962 1-512): T2 sequence (Q62962 1-512)
# Protocol: as §2
# Only the GFP-positive cells were recorded. The GFP-positive CHO-1a cells may express a mix of homomeric ASIC1a, ASIC2a, or heteromeric ASIC1a/2a channels. Since homomeric ASIC2a channels are not activated at pH 6.0 37, the ASIC currents activated at pH 6.0 might be due to the activation of ASIC1a or ASIC1a/2a channels.
# homomeric ASIC1β = biological target: T4, homomeric ASIC1β (Rattus norvegicus, UniProt P55926); assay: Patch-clamp recording of ASIC1β currents in CHO cells with transient expression; details: 10 μM, pH drop 7.4 to 6.0, n=4-5
# T4 sequence (P55926 1-559 isoform P55926-3): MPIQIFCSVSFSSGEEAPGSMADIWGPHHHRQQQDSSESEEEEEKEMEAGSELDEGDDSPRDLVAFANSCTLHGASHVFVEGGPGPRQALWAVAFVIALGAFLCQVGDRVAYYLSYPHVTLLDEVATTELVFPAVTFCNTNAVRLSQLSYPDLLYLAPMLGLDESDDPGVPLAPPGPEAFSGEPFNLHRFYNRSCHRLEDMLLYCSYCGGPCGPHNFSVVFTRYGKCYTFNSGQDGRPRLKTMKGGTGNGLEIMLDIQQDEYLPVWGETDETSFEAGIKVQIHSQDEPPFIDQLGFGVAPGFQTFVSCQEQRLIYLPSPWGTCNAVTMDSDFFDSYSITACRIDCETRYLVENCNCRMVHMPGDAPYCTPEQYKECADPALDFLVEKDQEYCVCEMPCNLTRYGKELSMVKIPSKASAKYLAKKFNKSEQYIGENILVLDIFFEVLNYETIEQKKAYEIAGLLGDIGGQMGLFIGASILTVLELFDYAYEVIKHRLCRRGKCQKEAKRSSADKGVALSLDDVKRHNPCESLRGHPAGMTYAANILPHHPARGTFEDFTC
# Protocol: as §1, §2, §3
# [4] = test system: primary cultured mouse cortical neurons; details: pH 6.0, n=7-8
# homomeric ASIC3 = biological target: T5, homomeric ASIC3 (Rattus norvegicus, UniProt O35240); assay: Patch-clamp recording of ASIC3 currents in CHO cells with transient expression
# T5 sequence (O35240 1-533): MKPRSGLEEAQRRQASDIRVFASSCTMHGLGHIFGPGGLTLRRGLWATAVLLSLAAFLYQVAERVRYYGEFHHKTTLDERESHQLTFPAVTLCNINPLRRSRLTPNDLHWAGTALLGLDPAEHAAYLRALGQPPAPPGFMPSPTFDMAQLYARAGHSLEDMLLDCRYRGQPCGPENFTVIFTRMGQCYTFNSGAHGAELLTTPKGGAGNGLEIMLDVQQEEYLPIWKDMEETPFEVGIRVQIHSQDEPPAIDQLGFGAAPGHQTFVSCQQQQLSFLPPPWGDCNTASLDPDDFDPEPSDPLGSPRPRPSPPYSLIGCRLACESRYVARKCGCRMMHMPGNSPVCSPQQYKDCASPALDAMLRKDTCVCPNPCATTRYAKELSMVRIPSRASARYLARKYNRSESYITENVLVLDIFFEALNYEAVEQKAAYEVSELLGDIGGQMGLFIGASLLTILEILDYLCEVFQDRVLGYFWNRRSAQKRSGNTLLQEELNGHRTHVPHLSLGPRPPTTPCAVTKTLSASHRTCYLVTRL
# Protocol: as §1, §2, §3
smiles,measurement,setting,value
"CC(C)CCC[C@@H](C)[C@H]1CC[C@H]2[C@@H]3C[C@@H](O)[C@@]4(O)C[C@@H](O)CC[C@]4(C)[C@H]3CC[C@]12C [Triol, cholestane-3β, 5α, 6β-triol]",inhibition at 1 µM,"[1]; 1 μM Triol, within 5 minutes of application, pH drop 7.4 to 6.0, n=5, read-out: inhibition of ASIC1a currents",~20%
same,inhibition at 10 µM,"[1]; 10 μM Triol, within 5 minutes of application, pH drop 7.4 to 6.0, n=5, read-out: inhibition of ASIC1a currents",~40%
same,inhibition at 10 µM,"[1]; 10 μM, once/one min, within 5 min of recording, read-out: inhibition of ASIC current, higher stimulatory frequency",~40%
same,inhibition at 10 µM,"[1]; 10 μM, once/two min, within 5 min of recording, read-out: inhibition of ASIC1a currents, lower stimulatory frequency",~20%
same,reversibility of ASIC1a inhibition,[1]; after 30 min washout (data not shown),irreversible
same,effect on ASIC2a currents,homomeric ASIC2a,no significant effect
same,effects in the pain tests relative to commonly used pain relief drugs,[2],independent of and additive to
same,pain-related behavior in vocalization and mechanical hypersensitivity tests,[2],decreased levels of pain-related behavior
same,effect on PcTx-1 insensitive ASIC currents,[3],inhibited these currents
same,effect on ASIC1β currents,homomeric ASIC1β,no significant effect
same,acid-induced cytotoxicity (LDH release),[4],significantly decreased
same,inhibition at 10 µM,"homomeric ASIC3; pH 5.5, read-out: inhibition of ASIC3 peak current component",~23%
same,inhibition at 10 µM,"homomeric ASIC3; pH 5.5, read-out: inhibition of ASIC3 sustained current component",~54%
